In ChEMBL document CHEMBL4831477, “Structure-Enabled Discovery of Novel Macrocyclic Inhibitors Targeting Glutaminase 1 Allosteric Binding Site” (J Med Chem, 2021):
In brackets after ≈: the same amount, converted by molar mass. Activity calls are given as the source filed them. No cut-off for these calls is given here.

Key:
[1] = AUC(0 to infinity) in Sprague-Dawley rat at 5 mg/kg, iv measured upto 72 hrs by LC-MS/MS analysis; assay type: ADME, organism-based; parameters: route intravenous, dose 5 mg/kg, time <=72; conditions: Sprague-Dawley, in vivo
[2] = Intrinsic aqueous solubility of compound at pH 7.4 by LC-MS based shake-flask method; assay type: physicochemical; conditions: read-out: Intrinsic_solubility
[3] = Half life in Sprague-Dawley rat at 5 mg/kg, iv measured upto 72 hrs by LC-MS/MS analysis; assay type: ADME, organism-based; conditions: in vivo
[4] = Apparent volume of distribution in Sprague-Dawley rat at 200 mg/kg, po measured upto 72 hrs by LC-MS/MS analysis; assay type: ADME, organism-based; conditions: in vivo
[5] = Acute toxicity in BALB/c nude mouse assessed as kidney damage at 200 mg/kg, po administered twice daily for 4 weeks by H and E staining based optical microscopic analysis; assay type: organism-based; conditions: in vivo, 672 h
[6] = Cmax in Sprague-Dawley rat at 200 mg/kg, po measured upto 72 hrs by LC-MS/MS analysis; assay type: ADME, organism-based; parameters: route oral, dose 200 mg/kg, time <=72; conditions: in vivo
[7] = AUC(0 to infinity) in Sprague-Dawley rat at 200 mg/kg, po measured upto 72 hrs by LC-MS/MS analysis; assay type: ADME, organism-based; parameters: route oral, dose 200 mg/kg, time <=72; conditions: in vivo, 72 h
[8] = Half life in Sprague-Dawley rat at 200 mg/kg, po measured upto 72 hrs by LC-MS/MS analysis; assay type: ADME, organism-based; conditions: in vivo
[9] = Acute toxicity in BALB/c nude mouse assessed as lung damage at 200 mg/kg, po administered twice daily for 4 weeks by H and E staining based optical microscopic analysis; assay type: organism-based; conditions: in vivo, 672 h
MDA-MB-436 = experiment: Antiproliferative activity against human MDA-MB-436 cells assessed as reduction in cell viability incubated for 72 hrs by MTT assay; assay type: functional, cell-based; conditions: MDA-MB-436, 72 h
HCT-116 [10] = experiment: Antineoplastic activity against human HCT-116 cells xenografted in po dosed BALB/c nude mouse administered twice daily measured after 28 days; assay type: functional, organism-based; conditions: dose 200.0 mg/kg, time 28.0 day
[11] = Cmax in BALB/c nude mouse plasma xenografted with human HCT-116 cells at 200 mg/kg, po administered twice daily for 28 days; assay type: ADME, organism-based; parameters: route oral, time 28 day, dose 200 mg/kg
HCT-116 [12] = experiment: Antitumor activity against human HCT-116 cells xenografted in BALB/c nude mouse assessed as tumor destruction at 200 mg/kg, po administered twice daily measured after 28 days by H and E staining based optical microscopic method; assay type: functional, organism-based; conditions: time 28.0 day
[13] = Toxicity in BALB/c nude mouse xenografted with human HCT-116 cells assessed as tolerability at 200 mg/kg, po administered twice daily measured after 28 days; assay type: organism-based; conditions: in vivo, 672 h, time 28 day
[14] = Distribution coefficient, logD of the compound at pH 7.4 by LC-MS based shake-flask method; assay type: physicochemical; conditions: octanol/water, read-out: logD
[15] = Clearance in Sprague-Dawley rat at 5 mg/kg, iv measured upto 72 hrs by LC-MS/MS analysis; assay type: ADME, organism-based; conditions: Sprague-Dawley, in vivo
[16] = target: T1, Glutaminase kidney isoform, mitochondrial (Mus musculus) (UniProt D3Z7P3); experiment: In vivo inhibition of GLS1 in BALB/c mouse xenografted with human HCT-116 cells assessed as reduction in malate level at 200 mg/kg, po; assay type: functional, organism-based
T1 sequence (whole entry): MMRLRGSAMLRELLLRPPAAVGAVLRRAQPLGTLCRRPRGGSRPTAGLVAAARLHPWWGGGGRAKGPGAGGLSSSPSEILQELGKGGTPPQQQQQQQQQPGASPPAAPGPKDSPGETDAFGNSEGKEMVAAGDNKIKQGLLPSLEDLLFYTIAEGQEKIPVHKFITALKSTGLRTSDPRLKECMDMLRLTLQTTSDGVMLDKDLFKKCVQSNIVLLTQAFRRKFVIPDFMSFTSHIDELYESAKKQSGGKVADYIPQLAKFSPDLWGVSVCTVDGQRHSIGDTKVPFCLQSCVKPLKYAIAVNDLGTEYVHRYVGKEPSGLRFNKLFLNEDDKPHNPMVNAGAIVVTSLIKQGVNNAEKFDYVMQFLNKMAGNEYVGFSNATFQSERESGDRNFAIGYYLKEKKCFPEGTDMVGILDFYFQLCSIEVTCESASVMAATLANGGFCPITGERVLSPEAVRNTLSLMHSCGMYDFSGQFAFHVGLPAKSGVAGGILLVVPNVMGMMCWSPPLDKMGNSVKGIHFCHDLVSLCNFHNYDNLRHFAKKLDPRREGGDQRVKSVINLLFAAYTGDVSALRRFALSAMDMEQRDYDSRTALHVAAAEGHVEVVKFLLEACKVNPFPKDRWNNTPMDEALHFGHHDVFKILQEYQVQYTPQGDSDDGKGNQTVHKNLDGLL

[17] = Apparent volume of distribution in Sprague-Dawley rat at 5 mg/kg, iv measured upto 72 hrs by LC-MS/MS analysis; assay type: ADME, organism-based; conditions: in vivo, read-out: Vz
HCT-116 [18] = experiment: Inhibition of clone formation in human HCT-116 cells at 0.1 to 2 microM incubated for 14 days by crystal violet staining based assay; assay type: functional, cell-based; conditions: dose 0.1-2 µM, time 14.0 day
[19] = Acute toxicity in BALB/c nude mouse assessed as liver damage at 200 mg/kg, po administered twice daily for 4 weeks by H and E staining based optical microscopic analysis; assay type: organism-based; conditions: in vivo, 672 h
[20] = Metabolic stability in human liver microsomes assessed as clearance at 10 uM preincubated for 5 mins followed by NADPH addition by LC-MS/MS analysis; assay type: ADME, Microsome; conditions: read-out: CLH
[21] = fCmax in BALB/c nude mouse plasma xenografted with human HCT-116 cells at 200 mg/kg, po administered twice daily for 28 days; assay type: ADME, organism-based; conditions: in vivo, 672 h, time 28 day
[22] = Metabolic stability in mouse liver microsomes assessed as clearance at 10 uM preincubated for 5 mins followed by NADPH addition by LC-MS/MS analysis; assay type: ADME, Microsome; conditions: read-out: CLH
Mus musculus = experiment: Induction of ROS generation in BALB/c mouse xenografted with human HCT-116 cells at 200 mg/kg, po; assay type: functional, organism-based
[23] = AUC(0 to t) in Sprague-Dawley rat at 200 mg/kg, po measured upto 72 hrs by LC-MS/MS analysis; assay type: ADME, organism-based; parameters: route oral, dose 200 mg/kg, time <=72; conditions: in vivo
[24] = Metabolic stability in mouse plasma assessed as compound remaining after 2 hrs by LC-MS/MS analysis; assay type: ADME, cell-free; conditions: read-out: Stability
HCT-116 [25] = experiment: Antitumor activity against human HCT-116 cells xenografted in BALB/c nude mouse assessed as large areas of necrosis at 200 mg/kg, po administered twice daily measured after 28 days by H and E staining based optical microscopic analysis; assay type: functional, organism-based; conditions: time 28.0 day
[26] = target: T1, Glutaminase kidney isoform, mitochondrial (Mus musculus); experiment: In vivo inhibition of GLS1 in BALB/c mouse xenografted with human HCT-116 cells assessed as increase in glutamine level at 200 mg/kg, po; assay type: functional, organism-based
[27] = target: T1, Glutaminase kidney isoform, mitochondrial (Mus musculus); experiment: In vivo inhibition of GLS1 in BALB/c mouse xenografted with human HCT-116 cells assessed as reduction in fumarate level at 200 mg/kg, po; assay type: functional, organism-based
[28] = Metabolic stability in human plasma assessed as compound remaining after 2 hrs by LC-MS/MS analysis; assay type: ADME, cell-free; conditions: read-out: Stability
[29] = target: T1, Glutaminase kidney isoform, mitochondrial (Mus musculus); experiment: In vivo inhibition of GLS1 in BALB/c mouse xenografted with human HCT-116 cells assessed as reduction in glutathione level at 200 mg/kg, po; assay type: functional, organism-based

## O=C1Cc2cccc(c2)OCC/C=C/CCOc2cccc(c2)CC(=O)Nc2nnc(s2)CCCCc2ccc(nn2)N1
[1]
  AUC(0-inf): 1670 ng·h/mL
[2]
  solubility thermodynamic: 1.73 µg/mL (≈ 2.89 µM)
[3]
  half-life: 6.3 h
[4]
  Vz: 58.6 L/kg
[5]
  Activity: Non-Toxic
[6]
  Cmax: 1030 ng/mL
[7]
  AUC: 6064 ng·h/mL
[8]
  half-life: 5.7 h
[9]
  Activity: Non-Toxic
MDA-MB-436
  IC50: 340 nM
HCT-116 [10]
  Activity: Dose-Dependent Effect
[11]
  Cmax: 1630 nM
HCT-116 [12]
  Activity: Active
[13]
  Activity: Non-Toxic
[14]
  logD: 3.13
[15]
  clearance: 53.3 mL/min/kg
[16]
  inhibition: Active
[17]
  Vd: 19.7 L/kg
HCT-116 [18]
  inhibition: Active
[19]
  Activity: Non-Toxic
[20]
  microsomal CLint at 10 µM: 3.2 µL/min/mg
[21]
  fCmax: 0.21 µM
[22]
  microsomal CLint at 10 µM: 7.6 µL/min/mg
Mus musculus
  Activity: Active
[23]
  AUC(0-t) at 72 h: 5920 ng·h/mL
[24]
  remaining at 2 h: 89%
HCT-116 [25]
  Activity: Active
[26]
  inhibition: Active
[27]
  inhibition: Active
[28]
  remaining at 2 h: 92%
[29]
  inhibition: Active
